Assay [1] deals with T1, Tyrosine-protein kinase ITK/TSK (Homo sapiens) (UniProt Q08881).
T1 sequence (whole entry): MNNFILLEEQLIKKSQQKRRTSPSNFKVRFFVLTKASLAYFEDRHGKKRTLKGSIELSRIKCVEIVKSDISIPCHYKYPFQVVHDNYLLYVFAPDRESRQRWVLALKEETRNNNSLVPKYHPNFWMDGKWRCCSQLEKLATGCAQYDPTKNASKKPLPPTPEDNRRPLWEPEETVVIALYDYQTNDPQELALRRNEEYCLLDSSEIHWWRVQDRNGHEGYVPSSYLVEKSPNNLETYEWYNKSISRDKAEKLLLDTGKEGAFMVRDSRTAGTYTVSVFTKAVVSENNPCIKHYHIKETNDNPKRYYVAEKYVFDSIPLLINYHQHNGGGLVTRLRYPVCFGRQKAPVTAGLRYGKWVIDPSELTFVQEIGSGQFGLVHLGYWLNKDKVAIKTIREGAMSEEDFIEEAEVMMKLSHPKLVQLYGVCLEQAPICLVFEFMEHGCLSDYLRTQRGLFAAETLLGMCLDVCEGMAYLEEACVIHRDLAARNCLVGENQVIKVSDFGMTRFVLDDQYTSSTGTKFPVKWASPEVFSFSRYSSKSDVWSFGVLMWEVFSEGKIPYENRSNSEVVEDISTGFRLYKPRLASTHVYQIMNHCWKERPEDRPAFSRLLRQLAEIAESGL
The assay can be described thus: Selectivity interaction (Kinase panel (Z-LYTE Assay)) EUB0001632a ITK. The conditions noted are these: at 10 µM.

Assay [2] addresses T2, Serine/threonine-protein kinase DCLK3 (Homo sapiens) (UniProt Q9C098).
T2 sequence (whole entry): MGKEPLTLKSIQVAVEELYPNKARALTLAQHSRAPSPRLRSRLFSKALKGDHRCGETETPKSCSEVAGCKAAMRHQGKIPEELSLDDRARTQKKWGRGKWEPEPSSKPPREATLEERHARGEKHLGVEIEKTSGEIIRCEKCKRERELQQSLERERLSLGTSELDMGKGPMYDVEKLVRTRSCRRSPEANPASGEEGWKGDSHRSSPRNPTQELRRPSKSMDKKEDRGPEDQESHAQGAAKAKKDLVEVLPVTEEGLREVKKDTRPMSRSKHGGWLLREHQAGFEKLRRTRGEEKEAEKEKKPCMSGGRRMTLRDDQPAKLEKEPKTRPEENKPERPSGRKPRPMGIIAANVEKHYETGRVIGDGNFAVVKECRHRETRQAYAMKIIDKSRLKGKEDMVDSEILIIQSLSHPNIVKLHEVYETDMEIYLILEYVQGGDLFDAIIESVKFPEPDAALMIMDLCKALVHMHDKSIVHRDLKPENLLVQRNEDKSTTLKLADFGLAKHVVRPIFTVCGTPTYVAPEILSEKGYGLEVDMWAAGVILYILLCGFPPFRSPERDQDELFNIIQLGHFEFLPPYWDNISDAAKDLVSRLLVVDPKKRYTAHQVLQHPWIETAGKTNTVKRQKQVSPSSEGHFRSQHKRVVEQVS
Description: Selectivity interaction (Ambit KINOMEscan and KiNATiv profiling in Jurkat cells) EUB0000090b DCLK3. It is filed as cell-based. Particulars: at 1 µM.

The target of assay [3] is Serine/threonine-protein kinase 32C (Homo sapiens) (UniProt Q86UX6). Description: Selectivity interaction (KinomeScan (DiscoverX)) EUB0000607a STK32C. The conditions noted are these: at 10 µM.
Serine/threonine-protein kinase 32C (Homo sapiens), sequence (Q86UX6 whole entry): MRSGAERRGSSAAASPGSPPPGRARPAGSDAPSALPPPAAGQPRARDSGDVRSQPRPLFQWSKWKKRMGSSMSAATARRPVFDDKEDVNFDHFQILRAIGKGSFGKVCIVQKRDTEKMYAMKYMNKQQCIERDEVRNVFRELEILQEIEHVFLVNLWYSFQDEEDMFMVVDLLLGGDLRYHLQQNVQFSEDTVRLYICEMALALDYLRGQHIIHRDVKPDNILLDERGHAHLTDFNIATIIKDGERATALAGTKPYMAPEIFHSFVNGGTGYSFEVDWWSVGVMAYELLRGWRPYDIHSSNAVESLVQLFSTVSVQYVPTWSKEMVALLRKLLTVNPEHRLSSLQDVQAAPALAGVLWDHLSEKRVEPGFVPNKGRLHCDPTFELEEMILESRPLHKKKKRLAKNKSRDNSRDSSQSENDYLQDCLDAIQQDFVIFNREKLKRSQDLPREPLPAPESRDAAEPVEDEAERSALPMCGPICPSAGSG
Assay [4] concerns the target Tyrosine-protein kinase Fyn (Homo sapiens) (UniProt P06241). The assay can be described thus: Selectivity interaction (KinomeScan (DiscoverX)) EUB0000655a FYN. The conditions noted are these: at 10 µM.
The target in assay [5] is Calcium/calmodulin-dependent protein kinase type 1 (Homo sapiens) (UniProt Q14012). Description: Selectivity interaction (Kinase panel (Invitrogen)) EUB0000639a CAMK1. The conditions noted are these: at 200 nM.
Calcium/calmodulin-dependent protein kinase type 1 (Homo sapiens), sequence (Q14012 whole entry, looked up): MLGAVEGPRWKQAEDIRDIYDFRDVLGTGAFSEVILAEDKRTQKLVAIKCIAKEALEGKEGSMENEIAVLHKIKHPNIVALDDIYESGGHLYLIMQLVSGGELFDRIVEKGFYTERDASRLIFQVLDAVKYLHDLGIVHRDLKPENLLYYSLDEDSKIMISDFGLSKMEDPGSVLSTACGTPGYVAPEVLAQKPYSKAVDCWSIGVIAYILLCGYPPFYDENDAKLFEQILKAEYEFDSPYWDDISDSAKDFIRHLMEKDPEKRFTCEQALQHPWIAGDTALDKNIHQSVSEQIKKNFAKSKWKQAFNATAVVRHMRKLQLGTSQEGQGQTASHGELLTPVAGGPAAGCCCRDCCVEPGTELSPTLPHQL
For assay [6], the target named is Phosphatidylinositol 4-kinase beta (Homo sapiens, UniProt Q9UBF8). Description: Selectivity interaction (ActivX KiNativ screen (kinase selectivity in THP-1 cell lysates)) EUB0000639a PI4KB. It is filed as subcellular. The conditions noted are these: lysate.
Phosphatidylinositol 4-kinase beta, sequence (Q9UBF8 2-816 limits assumed): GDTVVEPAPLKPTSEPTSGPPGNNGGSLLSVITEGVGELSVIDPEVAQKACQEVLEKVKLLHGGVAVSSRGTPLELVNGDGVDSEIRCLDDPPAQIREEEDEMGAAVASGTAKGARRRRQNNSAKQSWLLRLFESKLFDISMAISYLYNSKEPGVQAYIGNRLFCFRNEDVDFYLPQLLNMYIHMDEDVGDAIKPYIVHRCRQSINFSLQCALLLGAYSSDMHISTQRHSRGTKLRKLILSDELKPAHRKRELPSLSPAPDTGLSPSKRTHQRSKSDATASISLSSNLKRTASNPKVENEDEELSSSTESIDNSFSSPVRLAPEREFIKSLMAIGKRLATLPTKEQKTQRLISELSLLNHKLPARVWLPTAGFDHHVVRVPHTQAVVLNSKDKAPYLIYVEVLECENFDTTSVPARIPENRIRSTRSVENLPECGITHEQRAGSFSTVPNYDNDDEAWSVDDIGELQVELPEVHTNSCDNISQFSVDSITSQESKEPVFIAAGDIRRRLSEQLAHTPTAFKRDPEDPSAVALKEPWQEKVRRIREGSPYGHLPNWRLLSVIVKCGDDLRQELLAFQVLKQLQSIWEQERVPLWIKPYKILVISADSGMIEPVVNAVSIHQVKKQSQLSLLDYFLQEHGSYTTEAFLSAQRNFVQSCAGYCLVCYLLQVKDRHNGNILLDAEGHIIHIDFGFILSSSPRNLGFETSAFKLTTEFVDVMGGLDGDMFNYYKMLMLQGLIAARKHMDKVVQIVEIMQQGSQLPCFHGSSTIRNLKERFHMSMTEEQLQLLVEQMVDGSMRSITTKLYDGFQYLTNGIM
Assay [7] addresses Mitogen-activated protein kinase 9 (Homo sapiens, UniProt P45984). The assay can be described thus: Selectivity interaction (Kinase screening (Upstate/Millipore)) EUB0000604a MAPK9.
In assay [8] the target is T3, MAP/microtubule affinity-regulating kinase 4 (Homo sapiens) (UniProt Q96L34).
T3 sequence (whole entry): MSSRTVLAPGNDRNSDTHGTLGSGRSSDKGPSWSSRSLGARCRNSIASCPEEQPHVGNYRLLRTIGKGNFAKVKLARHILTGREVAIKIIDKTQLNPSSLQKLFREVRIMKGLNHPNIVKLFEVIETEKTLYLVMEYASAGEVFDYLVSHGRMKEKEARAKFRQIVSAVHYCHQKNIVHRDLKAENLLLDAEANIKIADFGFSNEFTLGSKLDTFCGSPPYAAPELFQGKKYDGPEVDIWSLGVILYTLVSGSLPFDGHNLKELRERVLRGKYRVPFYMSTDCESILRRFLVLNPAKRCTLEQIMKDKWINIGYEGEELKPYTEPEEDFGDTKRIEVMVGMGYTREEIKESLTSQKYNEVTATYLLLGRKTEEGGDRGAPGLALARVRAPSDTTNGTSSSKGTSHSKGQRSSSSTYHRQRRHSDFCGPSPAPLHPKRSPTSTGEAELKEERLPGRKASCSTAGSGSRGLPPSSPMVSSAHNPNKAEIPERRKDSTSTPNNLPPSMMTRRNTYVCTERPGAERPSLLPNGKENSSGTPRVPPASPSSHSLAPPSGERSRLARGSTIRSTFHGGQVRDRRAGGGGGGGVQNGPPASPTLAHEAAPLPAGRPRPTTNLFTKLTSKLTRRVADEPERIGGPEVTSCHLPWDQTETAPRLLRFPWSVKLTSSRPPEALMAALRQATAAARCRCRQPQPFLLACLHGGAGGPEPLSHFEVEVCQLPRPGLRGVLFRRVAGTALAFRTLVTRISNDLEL
The assay can be described thus: Selectivity interaction (KinomeScan (DiscoverX)) EUB0000695a MARK4. The conditions noted are these: at 100 nM.

Data on seven compounds can be found in ChEMBL document CHEMBL5465560, “Selectivity Literature for EUbOPEN Chemogenomic Library” (2024).

Tyrosine-protein kinase Fyn (Homo sapiens), sequence (P06241 2-537 limits assumed): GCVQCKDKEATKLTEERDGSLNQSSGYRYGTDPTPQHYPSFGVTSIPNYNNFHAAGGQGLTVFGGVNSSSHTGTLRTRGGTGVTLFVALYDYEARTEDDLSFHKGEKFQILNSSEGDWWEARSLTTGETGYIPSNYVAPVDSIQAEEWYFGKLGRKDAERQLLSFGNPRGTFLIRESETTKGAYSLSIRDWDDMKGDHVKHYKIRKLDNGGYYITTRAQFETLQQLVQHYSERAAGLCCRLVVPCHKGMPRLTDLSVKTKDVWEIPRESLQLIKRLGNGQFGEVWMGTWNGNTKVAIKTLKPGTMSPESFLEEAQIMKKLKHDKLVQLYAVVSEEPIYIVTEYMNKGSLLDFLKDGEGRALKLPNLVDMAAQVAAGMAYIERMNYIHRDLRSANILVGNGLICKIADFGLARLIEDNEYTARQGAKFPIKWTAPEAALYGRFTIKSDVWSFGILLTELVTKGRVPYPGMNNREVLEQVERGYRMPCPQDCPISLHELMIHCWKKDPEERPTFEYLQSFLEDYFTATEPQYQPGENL
Mitogen-activated protein kinase 9, sequence (P45984 whole entry, looked up): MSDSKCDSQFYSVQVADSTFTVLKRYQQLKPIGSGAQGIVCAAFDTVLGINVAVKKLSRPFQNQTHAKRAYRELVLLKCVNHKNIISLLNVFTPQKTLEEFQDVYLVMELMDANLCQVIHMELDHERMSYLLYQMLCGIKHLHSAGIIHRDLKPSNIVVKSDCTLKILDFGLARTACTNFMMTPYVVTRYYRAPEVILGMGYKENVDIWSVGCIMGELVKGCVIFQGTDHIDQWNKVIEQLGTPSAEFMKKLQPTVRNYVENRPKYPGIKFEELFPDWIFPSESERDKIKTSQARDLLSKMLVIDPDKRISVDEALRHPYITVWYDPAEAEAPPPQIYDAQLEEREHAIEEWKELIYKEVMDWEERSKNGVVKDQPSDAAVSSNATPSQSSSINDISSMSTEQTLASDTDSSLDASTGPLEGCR

For `Cn1cc(-n2cnc3c(NCc4nc5cc(Cl)c(Cl)cc5[nH]4)nc(N4CCOCC4)nc32)cn1`, the % of control in assay [1] was -0.395%. `CN(C)C/C=C/C(=O)Nc1ccc(C(=O)N2CCCC(Nc3ncc(Cl)c(-c4c[nH]c5ccccc45)n3)C2)cc1` (configuration not stated): the % of control in assay [2] was found to be 76%. Regarding `CNC(=O)Nc1ccc(-c2nc(N3CC4CCC(C3)O4)c3cnn(C4CCC5(CC4)OCCO5)c3n2)cc1`, in assay [3], the % of control was found to be 90%. Take `CN(C)CCOc1ccc(-c2nc(-c3ccncc3)c(-c3ccc4c(c3)CC/C4=N\O)[nH]2)cc1`: in assay [4], the % of control stood at 79%. Take `CC[C@@H]1[C@H](F)C(=O)N[C@@H]1COc1nccc2cc(C(N)=O)c(OC)cc12` [ZIMLOVISERTIB]: the % of inhibition is -15.3% in assay [5]; -20.4% in assay [6] (at 0.01 µM); 12.3% in assay [6] (at 0.04 µM); 15.1% in assay [6] (at 0.2 µM); 7.7% in assay [6] (at 1 µM); -1.3% in assay [6] (at 5 µM). With `Cc1cnc(Nc2ccc(F)cc2Cl)nc1-c1c[nH]c(C(=O)N[C@H](CO)c2cccc(Cl)c2)c1`, the % of inhibition in assay [7] was found to be 43%. On to `Cc1cc(F)c(C(=O)Nc2cccc(-c3nncn3C(C)C)n2)cc1-n1cnc(C2CC2)c1`, for which the % of control in assay [8] is 100%.
